Test results as given in ChEMBL document CHEMBL1128996, “Synthesis and preliminary pharmacological evaluation of analogues of caracasanamide, a hypotensive natural product” (1996).

Experiments:
[1] = test system: Rattus norvegicus; experiment: Compound was tested for its effect on systolic blood pressure in anaesthetized rats after i.v. administration at a dose of 4.12 umol/kg.; assay type: functional, Artery
[2] = test system: Rattus norvegicus; experiment: Compound was tested for its effect on respiratory frequency in anaesthetized rats after i.v. administration at a dose of 4.12 umol/kg.; assay type: functional
[3] = test system: Rattus norvegicus; experiment: Compound was tested for its effect on heart rate in anaesthetized rats after i.v. administration at a dose of 4.12 umol/kg.; assay type: functional
[4] = species: Rattus norvegicus; experiment: Compound was tested for cardiac ionotropism and expressed as dP/dtmax.; assay type: functional; parameters: concentration or dose not given beside the values
[5] = test system: Rattus norvegicus; experiment: Compound was tested for its effect on diastolic blood pressure in anaesthetized rats after i.v. administration at a dose of 4.12 umol/kg.; assay type: functional, Artery
[6] = test system: Rattus norvegicus; experiment: Compound was tested for its effect on heart rate in anaesthetized rats after i.v. administration at a dose of 4.12 umol/kg; assay type: functional

Compound: COc1ccc(C(=O)NCCCC/N=C(\N)NCC=C(C)C)cc1.CS(=O)(=O)O
- Activity [1]: -26 delta mmHg
- RF [2]: 17 delta beats min-1
- HR [3]: -16 delta beats min-1
- dP/dt max [4]: 3249 mmHg s-1
- Activity [5]: -35 delta mmHg

Compound: COc1ccc(CCC(=O)NCCCC/N=C(\N)NCC=C(C)C)cc1OC.CS(=O)(=O)O
- Activity [1]: -15 delta mmHg
- RF [2]: 6 delta beats min-1
- HR [3]: -12 delta beats min-1
- dP/dt max [4]: 2252 mmHg s-1
- Activity [5]: -14 delta mmHg

Compound: COc1ccc(/C=C/C(=O)NCCCCCC/N=C(\N)NCC=C(C)C)cc1OC.CS(=O)(=O)O
- Activity [1]: -9 delta mmHg
- RF [2]: 4 delta beats min-1
- HR [6]: 4 delta beats min-1
- dP/dt max [4]: 648 mmHg s-1
- Activity [5]: -8 delta mmHg

Compound: CC(C)=CC/N=C(/N)NCCCCNC(=O)/C=C/c1ccccc1.CS(=O)(=O)O
- Activity [1]: -47 delta mmHg
- RF [2]: 12 delta beats min-1
- HR [3]: 19 delta beats min-1
- dP/dt max [4]: 6070 mmHg s-1
- Activity [5]: -59 delta mmHg

Compound: COc1ccc(C#CC(=O)NCCCC/N=C(\N)NCC=C(C)C)cc1OC.CS(=O)(=O)O
- Activity [1]: -14 delta mmHg
- RF [2]: 14 delta beats min-1
- HR [3]: 14 delta beats min-1
- dP/dt max [4]: 3424 mmHg s-1
- Activity [5]: -24 delta mmHg

Compound: COc1ccc([C@H]2C[C@@H]2C(=O)NCCCC/N=C(\N)NCC=C(C)C)cc1OC.CS(=O)(=O)O
- Activity [1]: -30 delta mmHg
- RF [2]: 19 delta beats min-1
- HR [3]: -19 delta beats min-1
- dP/dt max [4]: 2781 mmHg s-1
- Activity [5]: -26 delta mmHg

Compound: COc1ccc(/C=C/C(=O)NCCCCC/N=C(\N)NCC=C(C)C)cc1OC.CS(=O)(=O)O
- Activity [1]: -34 delta mmHg
- RF [2]: -10 delta beats min-1
- HR [6]: 8 delta beats min-1
- dP/dt max [4]: 5028 mmHg s-1
- Activity [5]: -40 delta mmHg

Compound: COc1ccc(/C=C/C(=O)NCCCC/N=C(\N)NCC=C(C)C)cc1OC.CS(=O)(=O)O
- Activity [1]: -21 delta mmHg
- RF [2]: 23 delta beats min-1
- HR [3]: 22 delta beats min-1
- dP/dt max [4]: 2996 mmHg s-1
- Activity [5]: -18 delta mmHg

Compound: COc1ccc(CC(=O)NCCCC/N=C(\N)NCC=C(C)C)cc1OC.CS(=O)(=O)O
- Activity [1]: -22 delta mmHg
- RF [2]: 16 delta beats min-1
- HR [3]: -24 delta beats min-1
- dP/dt max [4]: 3088 mmHg s-1
- Activity [5]: -31 delta mmHg
